According to US20230085307A1, “PYRIDAZINONE COMPOUND AND HERBICIDE” (NISSAN CHEMICAL CORPORATION, priority 2019, published 2023):

test system: green foxtail; assay: Test Example 5: herbicidal effect by foliage application, plastic box (Table 20, symbol G); format: in vivo, green foxtail (Setaria viridis); conditions: foliage application, 320 g/ha, three weeks after application
Summary of the method: (§1)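 Plants sown in sterilized diluvial soil and grown 14 days in a greenhouse at 25° C to 30° C, then sprayed on the foliage with the compound's emulsion diluted in water to a predetermined herbicide amount. Injury to weeds and crops scored three weeks after application on a visual rating scale.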

| Compound | herbicidal effect on green foxtail (G) |
| --- | --- |
| CCOc1ccccc1-c1sc2c(Cl)c(OCC)ccc2c1-c1c(O)c(C)nn(C)c1=O [7-004] | 5 (Herbicidal rate of 90% or more (almost completely withered)) |
| Cc1nn(C)c(=O)c(-c2c(-c3ccc(OCC(F)(F)F)cc3)oc3ccccc23)c1O [8-005] | 5 (Herbicidal rate of 90% or more (almost completely withered)) |
| CSCCOc1ccc(-c2oc3ccccc3c2-c2c(O)c(C)nn(C)c2=O)cc1 [8-008] | 5 (Herbicidal rate of 90% or more (almost completely withered)) |

test system: late watergrass; assay: Test Example 2: herbicidal activity, application during weed generation under submerged conditions (Table 17, symbol A); format: in vivo, late watergrass (Echinochloa oryzicola); conditions: AAH 320 g/ha; application during weed generation, submerged conditions
Summary of the method: (§2)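 Herbicide emulsion, diluted with water to the chosen amount, is applied onto 4 cm floodwater over alluvial soil where the weeds were co-sown and raised at 25–30° C. Application timing: 1–2 leaves. Assessment: three weeks afterwards.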

| Compound | herbicidal effect rating, A: late watergrass |
| --- | --- |
| CCOc1ccccc1-c1sc2c(Cl)c(OCC)ccc2c1-c1c(O)c(C)nn(C)c1=O [7-004] | 3 (Herbicidal rate of 40% or more and less than 70%) |
| Cc1nn(C)c(=O)c(-c2c(-c3ccc(OCC(F)(F)F)cc3)oc3ccccc23)c1O [8-005] | 4 (Herbicidal rate of 70% or more and less than 90%) |
| CSCCOc1ccc(-c2oc3ccccc3c2-c2c(O)c(C)nn(C)c2=O)cc1 [8-008] | 2 (Herbicidal rate of 20% or more and less than 40%) |

test system: barnyard grass; assay: Test Example 3: herbicidal effect by foliage application, Wagner pot (Table 18, symbol H); format: in vivo, barnyard grass (Echinochloa crus-galli); conditions: amount of applied herbicide 320 g/ha
Summary of the method: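 Plants were sown in alluvial soil held under 0.1–0.5 cm standing water and grown 14 days in a greenhouse at 25–30 °C. An emulsifiable formulation, water-diluted to the set dose, was then sprayed onto the foliage, and effects were scored three weeks later using previously defined criteria.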

| Compound | Herbicidal effect on H (barnyard grass), foliage application |
| --- | --- |
| CCOc1ccccc1-c1sc2c(Cl)c(OCC)ccc2c1-c1c(O)c(C)nn(C)c1=O [7-004] | 5 (Herbicidal rate of 90% or more (almost completely withered)) |
| Cc1nn(C)c(=O)c(-c2c(-c3ccc(OCC(F)(F)F)cc3)oc3ccccc23)c1O [8-005] | 5 (Herbicidal rate of 90% or more (almost completely withered)) |
| CSCCOc1ccc(-c2oc3ccccc3c2-c2c(O)c(C)nn(C)c2=O)cc1 [8-008] | 5 (Herbicidal rate of 90% or more (almost completely withered)) |

test system: windgrass; assay: Test Example 4: herbicidal effect by soil treatment (Table 19, symbol L); format: in vivo, windgrass (Apera spica-venti); conditions: amount of applied herbicide 320 g/ha
Summary of the method: (§3)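 Three weeks of greenhouse growth at 25° C. to 30° C. followed a uniform surface spray of water-diluted emulsion at a predetermined herbicide amount. Seeds had been sown beforehand under about 1.5 cm of sterilized diluvial soil. Grading followed criteria set out in an earlier test.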

| Compound | L: windgrass, herbicidal effect grade |
| --- | --- |
| CCOc1ccccc1-c1sc2c(Cl)c(OCC)ccc2c1-c1c(O)c(C)nn(C)c1=O [7-004] | 0 (Herbicidal rate of 5% or less (almost no effect)) |
| Cc1nn(C)c(=O)c(-c2c(-c3ccc(OCC(F)(F)F)cc3)oc3ccccc23)c1O [8-005] | 0 (Herbicidal rate of 5% or less (almost no effect)) |
| CSCCOc1ccc(-c2oc3ccccc3c2-c2c(O)c(C)nn(C)c2=O)cc1 [8-008] | 0 (Herbicidal rate of 5% or less (almost no effect)) |

test system: Japanese bulrush; assay: Test Example 1: herbicidal activity, application before weed generation under submerged conditions (Table 16, symbol B); format: in vivo, Japanese bulrush (Schoenoplectus juncoides); conditions: amount of applied herbicide 320 g/ha
Summary of the method: (§4)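 Alluvial soil was flooded to 4 cm depth, weed seeds were sown mixed and 2.5-leaf rice seedlings were transplanted. On sowing day, the compound's emulsion, diluted in water to a set dose, was applied to the water surface. Plants grew at 25–30 °C and were scored 0–5 after three weeks.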

| Compound | Herbicidal effect, B: Japanese bulrush |
| --- | --- |
| CCOc1ccccc1-c1sc2c(Cl)c(OCC)ccc2c1-c1c(O)c(C)nn(C)c1=O [7-004] | 3 (Herbicidal rate of 40% or more and less than 70%) |
| Cc1nn(C)c(=O)c(-c2c(-c3ccc(OCC(F)(F)F)cc3)oc3ccccc23)c1O [8-005] | 5 (Herbicidal rate of 90% or more (almost completely withered)) |
| CSCCOc1ccc(-c2oc3ccccc3c2-c2c(O)c(C)nn(C)c2=O)cc1 [8-008] | 5 (Herbicidal rate of 90% or more (almost completely withered)) |

test system: chickweed; assay: Test Example 4: herbicidal effect by soil treatment (Table 19, symbol P); format: in vivo, common chickweed (Stellaria media); conditions: amount of applied herbicide 320 g/ha
Summary of the method: as §3

| Compound | P: chickweed, herbicidal effect grade |
| --- | --- |
| CCOc1ccccc1-c1sc2c(Cl)c(OCC)ccc2c1-c1c(O)c(C)nn(C)c1=O [7-004] | 4 (Herbicidal rate of 70% or more and less than 90%) |
| Cc1nn(C)c(=O)c(-c2c(-c3ccc(OCC(F)(F)F)cc3)oc3ccccc23)c1O [8-005] | 2 (Herbicidal rate of 20% or more and less than 40%) |
| CSCCOc1ccc(-c2oc3ccccc3c2-c2c(O)c(C)nn(C)c2=O)cc1 [8-008] | 5 (Herbicidal rate of 90% or more (almost completely withered)) |

test system: late watergrass; assay: Test Example 1: herbicidal activity, application before weed generation under submerged conditions (Table 16, symbol A); format: in vivo, late watergrass (Echinochloa oryzicola); conditions: amount of applied herbicide 320 g/ha
Summary of the method: as §4

| Compound | Herbicidal effect, A: late watergrass |
| --- | --- |
| CCOc1ccccc1-c1sc2c(Cl)c(OCC)ccc2c1-c1c(O)c(C)nn(C)c1=O [7-004] | 3 (Herbicidal rate of 40% or more and less than 70%) |
| Cc1nn(C)c(=O)c(-c2c(-c3ccc(OCC(F)(F)F)cc3)oc3ccccc23)c1O [8-005] | 5 (Herbicidal rate of 90% or more (almost completely withered)) |
| CSCCOc1ccc(-c2oc3ccccc3c2-c2c(O)c(C)nn(C)c2=O)cc1 [8-008] | 5 (Herbicidal rate of 90% or more (almost completely withered)) |

test system: southern crabgrass; assay: Test Example 5: herbicidal effect by foliage application, plastic box (Table 20, symbol F); format: in vivo, southern crabgrass (Digitaria ciliaris); conditions: foliage application, 320 g/ha, three weeks after application
Summary of the method: as §1

| Compound | herbicidal effect on southern crabgrass (F) |
| --- | --- |
| CCOc1ccccc1-c1sc2c(Cl)c(OCC)ccc2c1-c1c(O)c(C)nn(C)c1=O [7-004] | 5 (Herbicidal rate of 90% or more (almost completely withered)) |
| Cc1nn(C)c(=O)c(-c2c(-c3ccc(OCC(F)(F)F)cc3)oc3ccccc23)c1O [8-005] | 5 (Herbicidal rate of 90% or more (almost completely withered)) |
| CSCCOc1ccc(-c2oc3ccccc3c2-c2c(O)c(C)nn(C)c2=O)cc1 [8-008] | 5 (Herbicidal rate of 90% or more (almost completely withered)) |

test system: oval-leafed pondweed; assay: Test Example 1: herbicidal activity, application before weed generation under submerged conditions (Table 16, symbol C); format: in vivo, oval-leafed pondweed (Monochoria vaginalis); conditions: amount of applied herbicide 320 g/ha
Summary of the method: as §4

| Compound | Herbicidal effect, C: oval-leafed pondweed |
| --- | --- |
| CCOc1ccccc1-c1sc2c(Cl)c(OCC)ccc2c1-c1c(O)c(C)nn(C)c1=O [7-004] | 0 (Herbicidal rate of 5% or less (almost no effect)) |
| Cc1nn(C)c(=O)c(-c2c(-c3ccc(OCC(F)(F)F)cc3)oc3ccccc23)c1O [8-005] | 4 (Herbicidal rate of 70% or more and less than 90%) |
| CSCCOc1ccc(-c2oc3ccccc3c2-c2c(O)c(C)nn(C)c2=O)cc1 [8-008] | 4 (Herbicidal rate of 70% or more and less than 90%) |

test system: oval-leafed pondweed; assay: Test Example 2: herbicidal activity, application during weed generation under submerged conditions (Table 17, symbol C); format: in vivo, oval-leafed pondweed (Monochoria vaginalis); conditions: AAH 320 g/ha; application during weed generation, submerged conditions
Summary of the method: as §2

| Compound | herbicidal effect rating, C: oval-leafed pondweed |
| --- | --- |
| CCOc1ccccc1-c1sc2c(Cl)c(OCC)ccc2c1-c1c(O)c(C)nn(C)c1=O [7-004] | 2 (Herbicidal rate of 20% or more and less than 40%) |
| Cc1nn(C)c(=O)c(-c2c(-c3ccc(OCC(F)(F)F)cc3)oc3ccccc23)c1O [8-005] | 3 (Herbicidal rate of 40% or more and less than 70%) |
| CSCCOc1ccc(-c2oc3ccccc3c2-c2c(O)c(C)nn(C)c2=O)cc1 [8-008] | 2 (Herbicidal rate of 20% or more and less than 40%) |

test system: persian speedwell; assay: Test Example 4: herbicidal effect by soil treatment (Table 19, symbol R); format: in vivo, Persian speedwell (Veronica persica); conditions: amount of applied herbicide 320 g/ha
Summary of the method: as §3

| Compound | R: persian speedwell, herbicidal effect grade |
| --- | --- |
| CCOc1ccccc1-c1sc2c(Cl)c(OCC)ccc2c1-c1c(O)c(C)nn(C)c1=O [7-004] | 5 (Herbicidal rate of 90% or more (almost completely withered)) |
| Cc1nn(C)c(=O)c(-c2c(-c3ccc(OCC(F)(F)F)cc3)oc3ccccc23)c1O [8-005] | 4 (Herbicidal rate of 70% or more and less than 90%) |
| CSCCOc1ccc(-c2oc3ccccc3c2-c2c(O)c(C)nn(C)c2=O)cc1 [8-008] | 5 (Herbicidal rate of 90% or more (almost completely withered)) |

test system: redroot pigweed; assay: Test Example 4: herbicidal effect by soil treatment (Table 19, symbol N); format: in vivo, redroot pigweed (Amaranthus retroflexus); conditions: amount of applied herbicide 320 g/ha
Summary of the method: as §3

| Compound | N: redroot pigweed, herbicidal effect grade |
| --- | --- |
| CCOc1ccccc1-c1sc2c(Cl)c(OCC)ccc2c1-c1c(O)c(C)nn(C)c1=O [7-004] | 4 (Herbicidal rate of 70% or more and less than 90%) |
| Cc1nn(C)c(=O)c(-c2c(-c3ccc(OCC(F)(F)F)cc3)oc3ccccc23)c1O [8-005] | 5 (Herbicidal rate of 90% or more (almost completely withered)) |
| CSCCOc1ccc(-c2oc3ccccc3c2-c2c(O)c(C)nn(C)c2=O)cc1 [8-008] | 4 (Herbicidal rate of 70% or more and less than 90%) |

test system: southern crabgrass; assay: Test Example 4: herbicidal effect by soil treatment (Table 19, symbol F); format: in vivo, southern crabgrass (Digitaria ciliaris); conditions: amount of applied herbicide 320 g/ha
Summary of the method: as §3

| Compound | F: southern crabgrass, herbicidal effect grade |
| --- | --- |
| CCOc1ccccc1-c1sc2c(Cl)c(OCC)ccc2c1-c1c(O)c(C)nn(C)c1=O [7-004] | 3 (Herbicidal rate of 40% or more and less than 70%) |
| Cc1nn(C)c(=O)c(-c2c(-c3ccc(OCC(F)(F)F)cc3)oc3ccccc23)c1O [8-005] | 4 (Herbicidal rate of 70% or more and less than 90%) |
| CSCCOc1ccc(-c2oc3ccccc3c2-c2c(O)c(C)nn(C)c2=O)cc1 [8-008] | 3 (Herbicidal rate of 40% or more and less than 70%) |

test system: wild oat; assay: Test Example 4: herbicidal effect by soil treatment (Table 19, symbol I); format: in vivo, wild oat (Avena fatua); conditions: amount of applied herbicide 320 g/ha
Summary of the method: as §3

| Compound | I: wild oat, herbicidal effect grade |
| --- | --- |
| CCOc1ccccc1-c1sc2c(Cl)c(OCC)ccc2c1-c1c(O)c(C)nn(C)c1=O [7-004] | 0 (Herbicidal rate of 5% or less (almost no effect)) |
| Cc1nn(C)c(=O)c(-c2c(-c3ccc(OCC(F)(F)F)cc3)oc3ccccc23)c1O [8-005] | 0 (Herbicidal rate of 5% or less (almost no effect)) |
| CSCCOc1ccc(-c2oc3ccccc3c2-c2c(O)c(C)nn(C)c2=O)cc1 [8-008] | 0 (Herbicidal rate of 5% or less (almost no effect)) |

test system: velvetleaf; assay: Test Example 4: herbicidal effect by soil treatment (Table 19, symbol M); format: in vivo, velvetleaf (Abutilon theophrasti); conditions: amount of applied herbicide 320 g/ha
Summary of the method: as §3

| Compound | M: velvetleaf, herbicidal effect grade |
| --- | --- |
| CCOc1ccccc1-c1sc2c(Cl)c(OCC)ccc2c1-c1c(O)c(C)nn(C)c1=O [7-004] | 3 (Herbicidal rate of 40% or more and less than 70%) |
| Cc1nn(C)c(=O)c(-c2c(-c3ccc(OCC(F)(F)F)cc3)oc3ccccc23)c1O [8-005] | 3 (Herbicidal rate of 40% or more and less than 70%) |
| CSCCOc1ccc(-c2oc3ccccc3c2-c2c(O)c(C)nn(C)c2=O)cc1 [8-008] | 2 (Herbicidal rate of 20% or more and less than 40%) |
